In patent publication EP4678172A1, “USE OF NAPHTHYLAMIDE COMPOUND IN TREATMENT OF MENINGIOMA” (Shanghai Runshi Medical Technology Co., Ltd, priority 2023, dated 2024):

Columns and labels:
[1] = test system: Human meningioma cell line IOMM-Lee cells; assay: Trypan blue viable cell counting, cell viability; type: cell-based; details: 24 h
Description: Human meningioma cell line IOMM-Lee cells (purchased from ATCC) were cultured using a DMED culture medium containing 10% FBS and 100 U/mL penicillin-streptomycin double antibiotics in an incubator with 5% CO2 at 37 °C. The cells in the logarithmic growth phase were seeded uniformly in a 6-well plate at a density of 2 × 10^5 cells/mL and cultured for 24 h, and then the cells were grouped into a blank control group and compound (I) treatment groups at different concentrations. The compound (I) treatment concentrations were 0.4 µM, 0.8 µM, 1.6 µM, 2 µM, 10 µM, 20 µM, 60 µM, and 120 µM, and 3-4 replicate wells were set for each group. After cells in the groups were separately cultured for 24 h, the cells were digested with 0.25% trypsin, and 50 µL of each cell suspension was mixed with 50 µL of 0.4% trypan blue solution to a final trypan blue concentration of 0.2%. Subsequently, 10 µL of the uniform cell suspension was added to a counting plate and counted under a microscope for the total cell count and dead cell count. Statistical analysis was performed.

IOMM-Lee [2] = assay: Cell scratch assay (migration); type: cell-based, human; details: IOMM-Lee, 0.5, 1, 2 µM and 2, 5, 10 µM, 24 h, versus blank control; dose-dependent
Description: (§1) • (1) The IOMM-Lee single cell suspension in the logarithmic growth phase was seeded in a 6-well plate at a cell density of 6 × 10^5 cells/mL and cultured for 24 h to ensure the full covering of the entire cell culture dish by the growing cells. A cell scratch was made by a 10 µL sterile pipette tip perpendicular to the culture dish; the original culture solution was discarded; and the detached cells were pipetted by washing with PBS 3 times. The cells were cultured using a serum-free DMEM culture medium and grouped into a blank control group and compound (I) treatment groups at different concentrations, where the compound (I) treatment groups had concentrations of 0.5 µM, 1 µM, and 2 µM, respectively. The cells were observed under the bright field of a microscope and recorded at 0 h and 24 h. • (2) With reference to the experimental method (1), the concentrations in the compound (I) treatment groups were replaced by 2 µM, 5 µM, and 10 µM, respectively, and the used human meningioma cell line was IOMM-Lee or CH157-MN.

CH157-MN [3] = assay: Cell scratch assay (migration); type: cell-based, human; details: CH157-MN, 2, 5, 10 µM, 24 h, versus blank control; dose-dependent
Description: as §1

patients with meningioma = assay: Phase I clinical trial, tumor assessment by RANO criteria for meningioma; type: in vivo, human; details: for C2 target lesion shrinkage / target lesion shrinkage: head MRI; for target lesion shrinkage: after 6 cycles
Description: Compound (I) is currently undergoing phase I clinical trials to evaluate the preliminary efficacy on patients with meningioma.
Drug: compound (I) oral solution, 10-25 mg/day, once daily.
If no serious adverse events occurred, subsequent treatment cycles (21 days for each cycle) of administration may begin until progressive disease (PD) or intolerable toxicity occurred.
The efficacy on tumors was evaluated according to the RANO Criteria for Meningioma (Huang, Raymond Y et al. Proposed response assessment and endpoints for meningioma clinical trials: report from the Response Assessment in Neuro-Oncology Working Group. Neuro-oncology. vol. 21, 1 (2019): 26-36. doi:10.1093/neuonc/noy137). Target lesions were selected from tumor lesions with enhancement according to the criteria and precisely measured. The tumor treatment efficacy on the target lesions was confirmed by comparing the changes in the measured values. […] In addition, the improvement and deterioration of clinical symptoms of patients and the change in steroid hormone doses for symptomatic treatment of neurological symptoms were also used as evaluation indexes in tumor assessment. A tumor assessment was performed at baseline prior to the first administration and then performed once every 6 weeks during the administration until progressive disease (PD) occurred or a new anti-tumor treatment started.

[4] = Animal long-term toxicity test, conversion to human maximum tolerated dose; type: in vivo; details: converted from animal long-term toxicity test, human body weight of 60 kg
Description: A specific dose and administration frequency can be determined by a skilled physician according to conventional skills allowing for factors such as the route of administration, the health condition of the patient, etc. In the first dose escalation study (phase I trial) in a human, the most sensitive animal species were selected to calculate the maximum recommended starting dose for clinical trials according to the pre-clinical toxicology study. The starting dose was calculated according to the calculation methods recommended by "Technical Guidelines for Non-Clinical Research on Anti-Cancer Drugs" and other guidelines. In some embodiments, in the phase 1 clinical trial of compound (I), in order to ensure the safety of subjects, in combination with the operability of clinical trials and formulation specification, the starting dose of compound (I) for the phase I clinical trial was designed to be 5 mg. Based on the results of an animal long-term toxicity test, the maximum tolerated dose for the human body is converted into 200 mg according to the human body weight of 60 kg. In the phase 1 clinical trial of compound (I), the safety, tolerance, and efficacy of the continuous administration regimen of a daily administration dose of 5 mg-200 mg were researched. […]

IOMM-Lee [5] = assay: Apoptosis by annexin V-FITC/PI flow cytometry; type: cell-based, human; details: IOMM-Lee, 1, 5, 10 µM and 2, 5, 10 µM, 24 h, versus blank control
Description: (§2) • (1) The IOMM-Lee single cell suspension in the logarithmic growth phase was seeded in a 6-well plate at a cell density of 5 × 10^5 cells/mL, cultured overnight, and grouped into a blank control group and compound (I) treatment groups at different concentrations, with concentrations of compound (I) being 1 µM, 5 µM, and 10 µM, respectively, and 3-4 replicate wells were set. After the addition of compound (I) at different concentrations for the treatment for 24 h, (1-10) × 10^5 cells were collected from the blank control group and each compound (I) treatment group, washed with PBS, and centrifuged. The cells were resuspended in 500 µL of 1× binding buffer. 5 µL of annexin V-FITC and 10 µL of PI were added to each tube. After gently and homogeneously mixing by vortex, the cells were incubated in the dark at room temperature for 5 min and then subjected to flow cytometry. • (2) With reference to the experimental method (1), the concentrations in the compound (I) treatment groups were replaced by 2 µM, 5 µM, and 10 µM, respectively, and the used human meningioma cell line was IOMM-Lee or CH157-MN.

CH157-MN [6] = assay: Apoptosis by annexin V-FITC/PI flow cytometry; type: cell-based, human; details: CH157-MN, 2, 5, 10 µM, 24 h, versus blank control
Description: as §2

IOMM-Lee [7] = assay: Transwell chamber assay (invasion); type: cell-based, human; details: IOMM-Lee, 0.5, 1, 2 µM and 2, 5, 10 µM, 24 h; with increasing concentration
Description: (§3) • (1) The upper chamber of the pre-cooled Transwell chamber was coated with 50 µL of matrigel, and the matrigel-coated chamber was incubated in an incubator at 37 °C for 6-8 h to allow the matrigel to polymerize into a gel. After 100 µL of a serum-free culture medium was added to each well, the chamber was placed in an incubator for 1 h to allow the basement membrane hydration. The liquid in the upper chamber was removed, and the IOMM-Lee single cell suspension in the logarithmic growth phase was adjusted to a cell density of 2 × 10^5 cells/mL using the serum-free DMEM culture medium; 200 µL of the cell suspension was added to the Transwell chamber; and the culture liquid in the lower chamber was a DMEM culture medium with 20% FBS. Compound (I) samples at different concentrations (0 µM, 0.5 µM, 1 µM, and 2 µM, respectively) were added to the chamber. The culture was finished 24 h later; and the cells in the chamber were removed with a cotton swab, fixed with 4% paraformaldehyde for 20 min, washed with PBS 3 times, stained with crystal violet for 30 min, and observed under a microscope. The invading cells were counted. • (2) With reference to the experimental method (1), the concentrations in the compound (I) treatment groups were replaced by 2 µM, 5 µM, and 10 µM, respectively, and the used human meningioma cell line was IOMM-Lee or CH157-MN.

CH157-MN [8] = assay: Transwell chamber assay (invasion); type: cell-based, human; details: CH157-MN, 2, 5, 10 µM, 24 h; with increasing concentration
Description: as §3

[9] = test system: meningioma cells IOMM-Lee; assay: EdU cell proliferation assay; type: cell-based, human; details: 1 µM, 24 h, versus blank control group
Description: The IOMM-Lee single cell suspension in the logarithmic growth phase obtained in Example 1 was seeded in a 6-well plate at a cell density of 3 × 10^5 cells/mL, cultured overnight, and grouped into a blank control group and a compound (I) treatment group (concentration: 1 µM; treatment duration: 24 h). Subsequently, each group was incubated with EdU (10 µM) for 2 h; the culture medium was discarded; and the cells were washed with PBS (in this experiment, PBS was used in the washing process). The cells were fixed with 4% paraformaldehyde; the stationary liquid was discarded; and the cells were washed. After that, the cells were permeabilized with 0.3% Triton X100; the permeabilization liquid was discarded; and the cells were washed. Then, a prepared click reaction solution (commercially available C0081 BeyoClick™ EdU Cell Proliferation Kit with Alexa Fluor 647) was added; the mixture was incubated in the dark at room temperature for 30 min; the reaction solution was discarded; and the cells were washed. The cell nuclei were stained with Hoechst 33342 fluorescent dye by adding 1× Hoechst 33342 solution at 1 mL/well, followed by incubated in the dark at room temperature for 10 min; 1× Hoechst 33342 solution was removed by pipetting; and the cells were washed 3 times. Subsequently, a fluorescence assay was performed, and the results were recorded.

[10] = 34 meningioma patients, oral solution 10-25 mg/day
[11] = RANO criteria for meningioma, 34 meningioma patients, oral solution 10-25 mg/day
[12] = by Feb. 2, 2024, 32 patients completed the tumor assessment, oral solution 10-25 mg/day
[13] = by Jan. 16, 2023, 5 patients completed the tumor assessment, oral solution 10-25 mg/day
[14] = of 34 meningioma patients, oral solution 10-25 mg/day

Cc1cc(NC(=O)c2cccc3cc(-c4cccc5[nH]nc(N)c45)ccc23)ccc1F [compound (I)] showed a viability at 0.4 µM ([1]; compound (I) 0.4 µM) of 71.8 ± 4.06%, a viability at 0.8 µM ([1]; compound (I) 0.8 µM) of 56.8 ± 5.19% and a viability at 1.6 µM ([1]; compound (I) 1.6 µM) of 48.3 ± 10.5%. For the same compound, the viability at 2 µM ([1]; compound (I) 2 µM) was 45.3 ± 1.91%, the viability at 10 µM ([1]; compound (I) 10 µM) was 35 ± 3.93% and the viability at 20 µM ([1]; compound (I) 20 µM) was 22.6 ± 2.72%. For the same compound, the viability at 60 µM ([1]; compound (I) 60 µM) was 19.3 ± 0.52%, the viability at 80 µM ([1]; compound (I) 80 µM) was 6.33 ± 1.71% and the viability at 120 µM ([1]; compound (I) 120 µM) was 0%. For the same compound, the cell scratch healing (IOMM-Lee [2]) was “significantly weaker cell scratch healing than that of the blank control group”, the cell scratch healing (CH157-MN [3]) was “significantly weaker cell scratch healing than that of the blank control group” and the “adverse events associated with the administration (severity)” value (patients with meningioma; [10]) was “mostly mild and moderate”. For the same compound, the “adverse events with an incidence of greater than 20%” value (patients with meningioma; [10]) was “hypertension, decreased platelet count, increased blood lactate dehydrogenase, sinus bradycardia, proteinuria, increased aspartate aminotransferase, increased alanine aminotransferase, hypokalemia, hyperlipidemia, decreased neutrophil count, decreased leukocyte count, diarrhea, and anemia”, the disease control rate (patients with meningioma; [11]) was 82.4% and the objective remission rate (patients with meningioma; [11]) was 29.41%. For the same compound, the “C2 target lesion shrinkage” value (patients with meningioma; Typical case 1: anaplastic meningioma WHO grade III, oral solution 15 mg once daily, two cycles) was 56%, the “adverse events during the treatment” value (patients with meningioma; Typical case 1: oral solution 15 mg once daily) was “No adverse events” and the “clinical symptoms reported by subject” value (patients with meningioma; Typical case 1: oral solution 15 mg once daily, two cycles) was “significantly mitigated head-distending pain”. For the same compound, the “clinical symptoms of subject” value (patients with meningioma; Typical case 2: baseline blindness in both eyes, oral solution 15 mg once daily, after two cycles) was “vision recovery and self-care recovery”, the “C2 target lesion shrinkage” value (patients with meningioma; Typical case 2: meningioma (fibrous) WHO grade I, oral solution 15 mg once daily, two cycles) was 36% and the “main adverse event during the treatment” value (patients with meningioma; Typical case 2: oral solution 15 mg once daily, recovered after administration was suspended) was “mild or moderate hypertension”. For the same compound, the “C2 target lesion shrinkage” value (patients with meningioma; Typical case 3: malignant meningioma, oral solution 15 mg once daily) was 56%, the “main adverse event during the treatment” value (patients with meningioma; Typical case 3: oral solution 15 mg once daily, recovered after taking a hypotensor) was “mild or moderate hypertension” and the target lesion shrinkage (patients with meningioma; Typical case 4: atypical meningioma WHO grade II, oral solution 20 mg once daily) was 61.47%. The “main adverse events during the treatment” value (patients with meningioma; Typical case 4: oral solution 20 mg once daily, recovered after symptomatic treatment) was “mild proteinuria, decreased platelet count, decreased neutrophil count, decreased leucocyte count, and increased alanine aminotransferase”, the “main adverse events during the treatment” value (patients with meningioma; Typical case 5: oral solution 25 mg once daily, mitigated/recovered after symptomatic treatment) was “mild hypertension, decreased platelet count, decreased neutrophil count, and increased alanine aminotransferase” and the target lesion shrinkage (patients with meningioma; Typical case 5: papillary meningioma WHO grade III, oral solution 25 mg once daily) was 36.73%. For the same compound, the MR cases (patients with meningioma; [12]) was 6, the PR cases (patients with meningioma; [12]) was 4 and the MR case (patients with meningioma; [13]) was 1. The PR cases (patients with meningioma; [13]) was 2, the “patients exhibited tumor shrinkage after administration” value (patients with meningioma; [14]) was 26 patients and the “patients exhibiting tumor shrinkage after administration, share of all patients” value (patients with meningioma; [14]) was 76.5%. The “maximum tolerated dose for the human body” value [4] was 200 mg, the late apoptosis (IOMM-Lee [5]) was “significantly increased” and the “total cell apoptosis ratio” value (IOMM-Lee [5]; with increasing concentration) was “increased”. The late apoptosis (CH157-MN [6]) was “significantly increased”, the “total cell apoptosis ratio” value (CH157-MN [6]; with increasing concentration) was “increased” and the invasion rates (IOMM-Lee [7]) was “significantly decreased”. For the same compound, the invasion rates (CH157-MN [8]) was “significantly decreased” and the “EdU-labeled (proliferating) cells” value [9] was “significantly fewer than those in the blank control group”.
